Measurements as given in paper PMC12442081, “Combating Fuel Biocontamination: Tailored Antimicrobial Peptides and an Innovative Delivery Strategy” (ACS Applied Bio Materials, 2025).
Where no end group is shown, it is not given here.

Key:
[1] = HPLC retention time as a function of peptide hydrophobicity; type: physicochemical; details: chromatographic, Polaris 5 C18-A reverse phase, 0.1% TFA water / 0.1% TFA acetonitrile gradient, 30 min, 300 μM peptide
Method: The purity of the peptides was ascertained by high-performance liquid chromatography (HPLC) using Polaris 5 C18-A […] × 4.6 mm reverse phase Zorbax columns from Agilent Technologies. The buffer system contained 0.1% (v/v) TFA in 100% water and 0.1% (v/v) TFA in 100% acetonitrile. Each peptide sample contained 300 μM peptides dissolved in an acetonitrile–water (1:4) mixture. A constant gradient of the two solvent systems was used to generate the chromatogram for 30 min after sample injection.

[2] = system: Pseudomonas aeruginosa (PA); test: Effectiveness of peptides on spiked fuel samples (aqueous layer); type: cell-based; set-up: key: (+) =1 (implying peptide activity in fuel environment); (X) = 0 (implying no activity in the desired range, indicated by microbial proliferation); Fuel x = -1(implying no activity in fuel environment); details: initial screening in spiked fuel
Method: (§1) To study the partitioning of microbes in fuel tanks, filter-sterilized fuel was mixed with BH medium in a 1:1 (v/v) ratio. The inoculum was added to the aqueous phase at the bottom to simulate growth in the aqueous layer of fuel tanks and incubated aerobically at 30 °C for 30 days. Visible growth was assessed, and aliquots from both the aqueous and fuel phases were plated on nutrient agar plates to evaluate microbial growth. Peptides were initially added to the aqueous layer of microbially spiked fuel samples for screening the effectiveness in the fuel environment. The study was further extended over a longer duration, and incubated under aerobic conditions at 30 °C for 30 days. Microbial growth was monitored at regular intervals by plating aliquots from the aqueous layer on the nutrient agar plates.
(§2) The engineered peptides were administered at their respective MICs to the aqueous layer of simulated fuel samples, and samples from both the aqueous and solvent (fuel) layers were removed at intervals of 7, 14, 21, and 30 days and plated on LBA plates to assess cell viability (Table S5).

[3] = system: Bacillus licheniformis (BL); test: as above; type: cell-based; set-up: key: (+) =1 (implying peptide activity in fuel environment); (X) = 0 (implying no activity in the desired range, indicated by microbial proliferation); Fuel x = -1(implying no activity in fuel environment); details: initial screening in spiked fuel
Method: as §1, §2

[4] = system: Hormoconis resinae (HR); test: as above; type: cell-based; set-up: key: (+) =1 (implying peptide activity in fuel environment); (X) = 0 (implying no activity in the desired range, indicated by microbial proliferation); Fuel x = -1(implying no activity in fuel environment); details: initial screening in spiked fuel
Method: as §1, §2

[5] = system: Roseomonas mucosa (RM); test: as above; type: cell-based; set-up: key: (+) =1 (implying peptide activity in fuel environment); (X) = 0 (implying no activity in the desired range, indicated by microbial proliferation); Fuel x = -1(implying no activity in fuel environment); details: initial screening in spiked fuel
Method: as §1, §2

[6] = system: Sphingomonas paucimobilis (SP); test: as above; type: cell-based; set-up: key: (+) =1 (implying peptide activity in fuel environment); (X) = 0 (implying no activity in the desired range, indicated by microbial proliferation); Fuel x = -1(implying no activity in fuel environment); details: initial screening in spiked fuel
Method: as §1, §2

[7] = system: Macrococcus caseolyticus (MC); test: as above; type: cell-based; set-up: key: (+) =1 (implying peptide activity in fuel environment); (X) = 0 (implying no activity in the desired range, indicated by microbial proliferation); Fuel x = -1(implying no activity in fuel environment); details: initial screening in spiked fuel
Method: as §1, §2

[8] = system: Dermacoccus nishinomiyaensis (DN); test: as above; type: cell-based; set-up: key: (+) =1 (implying peptide activity in fuel environment); (X) = 0 (implying no activity in the desired range, indicated by microbial proliferation); Fuel x = -1(implying no activity in fuel environment); details: initial screening in spiked fuel
Method: as §1, §2

[9] = system: Kocuria rosea (KR); test: as above; type: cell-based; set-up: key: (+) =1 (implying peptide activity in fuel environment); (X) = 0 (implying no activity in the desired range, indicated by microbial proliferation); Fuel x = -1(implying no activity in fuel environment); details: initial screening in spiked fuel
Method: as §1, §2

[10] = system: Micrococcus yunnanensis (MY); test: as above; type: cell-based; set-up: key: (+) =1 (implying peptide activity in fuel environment); (X) = 0 (implying no activity in the desired range, indicated by microbial proliferation); Fuel x = -1(implying no activity in fuel environment); details: initial screening in spiked fuel
Method: as §1, §2

[11] = system: Micrococcus yunnanensis (MY) ATCC 12698; type: cell-based
Method: (§3) All of the bacterial species were grown overnight at 37 °C in LB broth. 10^7 CFU/mL of cells were resuspended in fresh culture and grown until the mid log phase. , The bacterial cells were adjusted to a concentration of 5 × 10^5 CFU/mL to quantify the MIC. Equal volumes of the respective bacterial cultures were incubated with the serially diluted peptides in 96-well microtiter plate and incubated overnight at 37 °C in ambient air. Microorganisms without peptides were treated as the positive control, while uninoculated broth was used as the negative control. The MIC was taken as the lowest peptide concentration at which observable bacteria growth was inhibited, as measured by a microplate reader (Biotek Synergy H1 microplate reader). Experiments were performed in triplicates, and the mean MIC values were determined. A similar study was performed to understand the effect of peptide purity, i.e., ranging from 70 to 95%, on the peptide MIC.

[12] = system: Kocuria rosea (KR) ATCC 186; type: cell-based
Method: as §3

[13] = system: Sphingomonas paucimobilis (SP); type: cell-based
Method: as §3

[14] = system: Bacillus licheniformis (BL) ATCC 14580; type: cell-based; details: ATCC 14580
Method: as §3

[15] = system: Dermacoccus nishinomiyaensis (DN) ATCC 29093; type: cell-based
Method: as §3

[16] = system: microbial clusters MY, KR, DN, MC, BL, RM, SP, PA, HR; test: Broad-spectrum activity score (in-house scoring matrix); details: sum over 9 microbial clusters: (+) = 1, (X) = 0, Fuel x = -1
Method: Table S4. Summarizing the broad-spectrum activity of the peptides, considering the MIC value/ efficacy to control microbial growth upon fuel co-incubation
Peptides Bacterial clusters Fungal
Actinobacteria Firmicutes Proteobacteria Asco- […]
Peptides identified based on the scoring matrix, where (+) =1 (implying peptide activity in fuel environment); (X) = 0 (implying no activity in the desired range, indicated by microbial proliferation); Fuel x = -1(implying no activity in fuel environment).
Clearly, P17 is the best performing peptide in vitro across diverse microbial phyla as well as when incubated in the fuel environment. Based on the activity of the selected peptides, the best

[17] = system: Macrococcus caseolyticus (MC) ATCC 13548; type: cell-based
Method: as §3

[18] = system: Hormoconis resinae (HR) ATCC 20267; type: cell-based
Method: as §3
The same experimental procedures that were conducted for the antibacterial assay were used to determine the MIC of the peptides against the fungal strain, H. resinae.

[19] = system: Pseudomonas aeruginosa (PA) ATCC 39327; type: cell-based; details: ATCC 39327
Method: as §3

CC[C@H](C)[C@H](N)C(=O)N[C@@H](CC(C)C)C(=O)N[C@@H](CC(C)C)C(=O)N[C@@H](Cc1c[nH]c2ccccc12)C(=O)N[C@@H](CCCCN)C(=O)N[C@@H](Cc1c[nH]c2ccccc12)C(=O)N1CCC[C@H]1C(=O)N[C@@H](Cc1c[nH]c2ccccc12)C(=O)N[C@@H](Cc1c[nH]c2ccccc12)C(=O)N1CCC[C@H]1C(=O)N[C@@H](Cc1c[nH]c2ccccc12)C(=O)N[C@@H](CCCNC(=N)N)C(=O)N[C@@H](CCCNC(=N)N)C(=O)O [P19]
R t, retention time of peptide on HPLC column as a function of peptide hydrophobicity [1]: 13.667 min | activity considering MIC value/efficacy upon fuel co-incubation [2]: X | activity considering MIC value/efficacy upon fuel co-incubation [3]: + | activity considering MIC value/efficacy upon fuel co-incubation [4]: X | activity considering MIC value/efficacy upon fuel co-incubation [5]: X | activity considering MIC value/efficacy upon fuel co-incubation [6]: + | activity considering MIC value/efficacy upon fuel co-incubation [7]: X | activity considering MIC value/efficacy upon fuel co-incubation [8]: + | activity considering MIC value/efficacy upon fuel co-incubation [9]: Fuel x | activity considering MIC value/efficacy upon fuel co-incubation [10]: + | MIC [11]: 0.9 µM | MIC [12]: 3.9 µM | MIC [13]: 0.9 µM | MIC [14]: 1.9 µM | MIC [15]: 0.9 µM | Score [16]: 3

CC[C@H](C)[C@H](N)C(=O)N[C@@H](CC(C)C)C(=O)N[C@@H](Cc1ccccc1)C(=O)N[C@@H](Cc1c[nH]c2ccccc12)C(=O)N[C@@H](CCCCN)C(=O)N[C@@H](Cc1c[nH]c2ccccc12)C(=O)N1CCC[C@H]1C(=O)N[C@@H](Cc1c[nH]c2ccccc12)C(=O)N[C@@H](Cc1c[nH]c2ccccc12)C(=O)N1CCC[C@H]1C(=O)N[C@@H](Cc1c[nH]c2ccccc12)C(=O)N[C@@H](CCCNC(=N)N)C(=O)N[C@@H](CCCNC(=N)N)C(=O)O [P16]
R t, retention time of peptide on HPLC column as a function of peptide hydrophobicity [1]: 14.075 min | activity considering MIC value/efficacy upon fuel co-incubation [2]: X | activity considering MIC value/efficacy upon fuel co-incubation [3]: + | activity considering MIC value/efficacy upon fuel co-incubation [4]: X | activity considering MIC value/efficacy upon fuel co-incubation [5]: X | activity considering MIC value/efficacy upon fuel co-incubation [6]: + | activity considering MIC value/efficacy upon fuel co-incubation [7]: X | activity considering MIC value/efficacy upon fuel co-incubation [8]: X | activity considering MIC value/efficacy upon fuel co-incubation [9]: + | activity considering MIC value/efficacy upon fuel co-incubation [10]: + | MIC [11]: 0.9 µM | MIC [12]: 1.9 µM | MIC [13]: 0.9 µM | MIC [14]: 0.9 µM | MIC [17]: 125 µM | Score [16]: 4

ILPWKWPWFPWRR [P6]
R t, retention time of peptide on HPLC column as a function of peptide hydrophobicity [1]: 12.299 min | activity considering MIC value/efficacy upon fuel co-incubation [2]: X | activity considering MIC value/efficacy upon fuel co-incubation [3]: Fuel x | activity considering MIC value/efficacy upon fuel co-incubation [4]: Fuel x | activity considering MIC value/efficacy upon fuel co-incubation [5]: X | activity considering MIC value/efficacy upon fuel co-incubation [6]: X | activity considering MIC value/efficacy upon fuel co-incubation [7]: X | activity considering MIC value/efficacy upon fuel co-incubation [8]: Fuel x | activity considering MIC value/efficacy upon fuel co-incubation [9]: Fuel x | activity considering MIC value/efficacy upon fuel co-incubation [10]: + | MIC [18]: 0.9 µM | MIC [11]: 0.9 µM | MIC [12]: 0.9 µM | MIC [13]: 15.625 µM | MIC [19]: 7.8 µM | MIC [14]: 0.9 µM | MIC [15]: 0.9 µM | Score [16]: -3

ILPWKWVWWPWRR [P8]
R t, retention time of peptide on HPLC column as a function of peptide hydrophobicity [1]: 12.168 min | activity considering MIC value/efficacy upon fuel co-incubation [2]: X | activity considering MIC value/efficacy upon fuel co-incubation [3]: + | activity considering MIC value/efficacy upon fuel co-incubation [4]: X | activity considering MIC value/efficacy upon fuel co-incubation [5]: X | activity considering MIC value/efficacy upon fuel co-incubation [6]: + | activity considering MIC value/efficacy upon fuel co-incubation [7]: X | activity considering MIC value/efficacy upon fuel co-incubation [8]: Fuel x | activity considering MIC value/efficacy upon fuel co-incubation [9]: X | activity considering MIC value/efficacy upon fuel co-incubation [10]: + | MIC [18]: 31.25 µM | MIC [11]: 0.9 µM | MIC [13]: 3.91 µM | MIC [19]: 15.625 µM | MIC [14]: 1.9 µM | MIC [15]: 0.9 µM | Score [16]: 2

CC[C@H](C)[C@H](N)C(=O)N[C@@H](CC(C)C)C(=O)N[C@H](C(=O)N[C@@H](Cc1c[nH]c2ccccc12)C(=O)N[C@@H](CCCCN)C(=O)N[C@@H](Cc1c[nH]c2ccccc12)C(=O)N1CCC[C@H]1C(=O)N[C@@H](Cc1c[nH]c2ccccc12)C(=O)N[C@@H](Cc1c[nH]c2ccccc12)C(=O)N1CCC[C@H]1C(=O)N[C@@H](Cc1c[nH]c2ccccc12)C(=O)N[C@@H](CCCNC(=N)N)C(=O)N[C@@H](CCCNC(=N)N)C(=O)O)[C@@H](C)CC [P18]
R t, retention time of peptide on HPLC column as a function of peptide hydrophobicity [1]: 13.314 min | activity considering MIC value/efficacy upon fuel co-incubation [2]: X | activity considering MIC value/efficacy upon fuel co-incubation [3]: + | activity considering MIC value/efficacy upon fuel co-incubation [4]: X | activity considering MIC value/efficacy upon fuel co-incubation [5]: X | activity considering MIC value/efficacy upon fuel co-incubation [6]: + | activity considering MIC value/efficacy upon fuel co-incubation [7]: X | activity considering MIC value/efficacy upon fuel co-incubation [8]: Fuel x | activity considering MIC value/efficacy upon fuel co-incubation [9]: + | activity considering MIC value/efficacy upon fuel co-incubation [10]: + | MIC [11]: 0.9 µM | MIC [12]: 0.9 µM | MIC [13]: 0.9 µM | MIC [14]: 1.9 µM | MIC [15]: 0.9 µM | MIC [17]: 31.25 µM | Score [16]: 3
